Data taken from patent publication US20120178769A1, “NOVEL COMPOUNDS FOR INHIBITING EEF-2 KINASE ACTIVITY” (The University of Medicine and Dentistry, priority 2009, published 2012).

Legend:
eEF2 kinase = eEF2 kinase (Homo sapiens, UniProt O00418); test: eEF2 kinase activity assay with purified eEF2 (33P-ATP, SDS-PAGE, autoradiography); type: biochemical; conditions: purified eEF2, FIG. 1
Experimental: Recombinant eEF2 kinase (0.5 μg) was incubated with purified rabbit reticulocyte eEF2 (0.5 μg) in a reaction mixture consisting of 50 mM Hepes-KOH pH 6.6, 10 mM magnesium acetate, 5 mM DTT, 100 μM CaCl2, 0.5 μg calmodulin, 50 μM ATP, and 0.2 μCi [γ-^33P]-ATP (3000 Ci/mmol). The reactions were run at 30° C. for 15 minutes, and were terminated by incubation in an ice/water bath and addition of Laemmli sample buffer. Samples were analyzed by SDS-PAGE and autoradiography.

glioma cell lines = conditions: by inhibiting eEF2-K; Parmer et al, 1997; cited from earlier work
eEF2K = eEF2K (Homo sapiens, UniProt O00418); conditions: known selenazine inhibitors; cited from earlier work
eEF2K, sequence (O00418 whole entry): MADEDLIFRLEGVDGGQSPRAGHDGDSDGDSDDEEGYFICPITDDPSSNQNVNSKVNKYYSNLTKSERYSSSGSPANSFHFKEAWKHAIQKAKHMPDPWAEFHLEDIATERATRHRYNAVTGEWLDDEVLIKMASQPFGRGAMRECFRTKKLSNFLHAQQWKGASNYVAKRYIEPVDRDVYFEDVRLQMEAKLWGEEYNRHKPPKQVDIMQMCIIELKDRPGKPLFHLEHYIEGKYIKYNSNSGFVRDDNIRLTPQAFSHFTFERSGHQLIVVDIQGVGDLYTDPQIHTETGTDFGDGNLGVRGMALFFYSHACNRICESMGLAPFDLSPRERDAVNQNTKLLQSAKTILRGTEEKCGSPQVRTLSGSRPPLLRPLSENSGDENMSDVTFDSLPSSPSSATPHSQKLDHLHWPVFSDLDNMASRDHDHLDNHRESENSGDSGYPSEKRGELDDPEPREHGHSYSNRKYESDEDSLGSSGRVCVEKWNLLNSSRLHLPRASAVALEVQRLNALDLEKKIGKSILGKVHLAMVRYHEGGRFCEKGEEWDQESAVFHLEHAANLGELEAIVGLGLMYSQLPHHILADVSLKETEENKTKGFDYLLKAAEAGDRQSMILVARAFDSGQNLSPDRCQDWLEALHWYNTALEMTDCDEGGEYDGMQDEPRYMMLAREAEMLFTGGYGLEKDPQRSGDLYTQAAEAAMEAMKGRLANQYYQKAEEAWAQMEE

Row | Structure (SMILES) | inhibition of eEF2K phosphorylative activity (eEF2K) | other results
1 | CCCCCCCCCCCCC/C=C/[C@@H](O)[C@@H](N)COP(=O)(O)O [sphingosine-1-phosphate] | – | inhibition of eEF2 kinase in vitro (eEF2 kinase): inhibit eEF2 kinase in vitro
2 | CC(=O)c1c(O)c(C)c(O)c(Cc2c(O)c3c(c(C(=O)/C=C/c4ccccc4)c2O)OC(C)(C)C=C3)c1O [Rottlerin] | – | inhibition of growth of glioma cell lines (glioma cell lines): inhibit growth of glioma cell lines
3 | CCCCCC1=NC(O)(CC)CC[Se]1 (centres unmarked) [PS2] | known to inhibit eEF2K phosphorylative activity | –
4 | CCC1(O)CC[Se]C(c2ccc(C)cc2)=N1 (centres unmarked) [TS2] | known to inhibit eEF2K phosphorylative activity | –
5 | Cc1ccc(C2=NC(C)(O)CC(C(C)C)[Se]2)cc1 (centres unmarked) [TS4] | known to inhibit eEF2K phosphorylative activity | –
